Data on six compounds can be found in ChEMBL document CHEMBL4627398 (J Med Chem, 2020).

Broadly, the clearance is the rate of elimination divided by the concentration. For orientation: Cmax means the highest concentration seen after dosing. A word on the MRT: it is a mean duration of stay, worked out from the concentration-time curve. A word on the logD: it is the decadic logarithm of the distribution of all forms, ionised or not, between an organic phase and buffer at a given pH. By solubility is commonly meant the concentration that dissolves in the medium under given conditions. One may read the Papp as the rate of passage across a membrane or cell layer, normalised by area and donor concentration. What is called Tmax is the time from dosing to the highest level.

≈ marks a conversion by molar mass, not a printed value.

Data set [1] can be described thus: Metabolic stability in human liver microsomes incubated for 60 mins. The class given is ADME, Microsome. The settings on record: read-out: Stability. In general terms: Liver microsomes are a subcellular fraction often used to study metabolism.
A short description of data set [2]: Metabolic stability in monkey liver microsomes incubated for 60 mins. The settings on record: rhesus monkey, read-out: Stability. The class given is ADME, Macaca mulatta, Microsome.
Data set [3] is described as follows: Clearance in monkey at 0.1 mg/kg, iv. To be noted: rhesus monkey, in vivo. The class given is ADME, organism-based, Macaca mulatta.
A short description of data set [4]: Total clearance in dog at 0.3 mg/kg, iv. The class given is ADME, organism-based, Canis lupus familiaris. To be noted: in vivo.
Data set [5] is described as follows: Cmax in rat at 10 mg/kg, po. The format is ADME, organism-based. The arrangement: dose 10 mg/kg, route oral. To be noted: in vivo.
The nature of data set [6]: MRT in dog at 0.3 mg/kg, iv. The format is ADME, organism-based, Canis lupus familiaris. To be noted: in vivo.
Data set [7] in a line: MRT in rat at 1 mg/kg, iv. The format is ADME, organism-based. The settings on record: in vivo.
Data set [8] in a line: Lipophilicity, logD of the compound at pH 7. The format is physicochemical. The settings on record: buffer.
Data set [9] is described as follows: Solubility of the compound in FeSSIF. The format is physicochemical.
The nature of data set [10]: Volume of distribution at steady state in dog at 0.3 mg/kg, iv. The class given is ADME, organism-based, Canis lupus familiaris. The settings on record: in vivo, read-out: Vdss.
Data set [11] is described as follows: Terminal half life in rat at 1 mg/kg, iv. The class given is ADME, organism-based. The settings on record: in vivo, read-out: beta t1/2 (converted).
The nature of data set [12]: Solubility of the compound in PBS buffer. The class given is physicochemical.
Data set [13] can be described thus: Oral bioavailability in dog at 1 mg/kg. The settings on record: in vivo. The format is ADME, organism-based, Canis lupus familiaris.
A short description of data set [14]: Solubility of the compound in FaSSIF. The class given is physicochemical.
Data set [15] can be described thus: Total clearance in rat at 1 mg/kg, iv. The class given is ADME, organism-based. The settings on record: in vivo.
Data set [16] in a line: Terminal half life in dog at 0.3 mg/kg, iv. The class given is ADME, organism-based, Canis lupus familiaris. The settings on record: in vivo, read-out: beta t1/2 (converted).
Data set [17] in a line: Metabolic stability in dog liver microsomes incubated for 60 mins. The format is ADME, Canis lupus familiaris, Microsome. The settings on record: read-out: Stability.
A short description of data set [18]: Apparent permeability in human Caco2 cells. The class given is ADME, cell-based. The settings on record: Caco-2. (Caco-2 cells form a polarised layer with tight junctions and transporters.)
Data set [19] can be described thus: Metabolic stability in rat liver microsomes incubated for 60 mins. The settings on record: read-out: Stability. The class given is ADME, Microsome.
Data set [20] in a line: Oral bioavailability in rat at 10 mg/kg. The class given is ADME, organism-based. To be noted: in vivo.
The nature of data set [21]: Solubility of the compound in human Caco2 cells. The format is ADME, cell-based. The settings on record: Caco-2 cells.
Data set [22] is described as follows: Cmax in dog at 1 mg/kg, po. The class given is ADME, organism-based, Canis lupus familiaris. The arrangement: dose 1 mg/kg, route oral. To be noted: in vivo.
Data set [23] can be described thus: Metabolic stability in human hepatocytes incubated for 60 mins. The format is ADME, cell-based, Hepatocyte. The settings on record: read-out: Stability.
Data set [24] is described as follows: Tmax in dog at 1 mg/kg, po. To be noted: in vivo. The class given is ADME, organism-based, Canis lupus familiaris.
The nature of data set [25]: Metabolic stability in rat hepatocytes incubated for 60 mins. The class given is ADME, cell-based, Hepatocyte. To be noted: read-out: Stability.
Data set [26] in a line: Tmax in rat at 10 mg/kg, po. The class given is ADME, organism-based. The settings on record: in vivo.
Data set [27] is described as follows: Volume of distribution at steady state in rat at 1 mg/kg, iv. The format is ADME, organism-based. To be noted: in vivo, read-out: Vdss.
A short description of data set [28]: Metabolic stability in monkey hepatocytes incubated for 60 mins. The format is ADME, cell-based, Macaca mulatta, Hepatocyte. To be noted: rhesus monkey, read-out: Stability.

For `CC1CN(C(=O)CC#N)C12CCCN(c1ncnc3[nH]ccc13)C2` (stereo not given), the results for the remaining at 1 h in data set [1] and in data set [2] were 73.4% and 25.1%, respectively.
In the case of `N#CCC(=O)N1CCC12CCCN(c1ncnc3[nH]ccc13)C2` (single isomer, unassigned), the remaining at 1 h in data set [1] is 93.4%; in [2] it was 85.2%. The clearance in [3] is 12.7 mL/min/kg.
`N#CCC(=O)N1CC(F)(F)C12CCN(c1ncnc3[nH]ccc13)C2` (single isomer, unassigned): the remaining at 1 h in data set [1] worked out at 99.4%; in data set [2], 95.4%. This compound showed a clearance in data set [3] of 5.83 mL/min/kg.
Take `N#CCC(=O)N1CC(F)(F)C12CCCN(c1ncnc3[nH]ccc13)C2` (single isomer, unassigned): the results for the remaining at 1 h in data set [1] and in data set [2] were 88.4% and 64.6%, respectively.
In the same order, the values of `N#CCC(=O)N1CCCC12CCCN(c1ncnc3[nH]ccc13)C2` (single isomer, unassigned) are 75.7% and 29.4%.
For the compound `C[C@H]1CN(C(=O)CC#N)[C@]12CCN(c1ncnc3[nH]ccc13)C2` [DELGOCITINIB], the clearance in data set [4] is 6.17 mL/min/kg; in [3], 4.83 mL/min/kg; in [15] it was 35 mL/min/kg. The Cmax came out at 2.5 ng/mL in [5] and 1.9 ng/mL in data set [22]. Also, the MRT in data set [6] stood at 3.2 h; in [7] it was 1 h. The logD in data set [8] was determined as 0.6. In addition, the solubility in [9] is more than 475 µM; in data set [12], more than 95 µM; in data set [14] it was more than 475 µM; in data set [21] it was 1 µM (≈ 0.31 µg/mL). The Vd in [10] is 1.2 L/kg; in data set [27], 2.1 L/kg. The remaining at 1 h in data set [1] is 97.4%; in [2], 99.6%; in data set [17] it was 97.2%; in data set [19] it was 90.2%; in data set [23], 99.3%; in data set [25], 94.7%. The remaining at 1 h in data set [28] worked out at 84.8%. Also, the results for the half-life in [11] and in data set [16] were 102 min and 138 min, respectively. Moreover, the bioavailability in [13] amounted to 124%; in data set [20] it was 78%. Further, the Papp in data set [18] turned out to be 0.033 ×10⁻⁶ cm/s. Also, the Tmax was determined as 54 min in data set [24] and 1.5 h in data set [26].
